Assay results taken from patent US8575147B2, “Spontaneously dispersible N-benzoyl staurosporine compositions” (Novartis AG, priority 1999, dated 2013).

Assay: Solubility of N-benzoyl-staurosporine in water, simulated gastric and intestinal fluids
Format: physicochemical
Description: U.S. Pat. No. 5,093,330 specifically discloses two tablet formulations based on starch/lactose mixtures in the presence of colloidal silica, talc and magnesium stearate (Examples 52 and 53) and a capsule formulation based on talc and colloidal silica (Example 54). […] We have found it to be very lipophilic and practically insoluble in water, in simulated gastric and in intestinal fluids (solubility<0.1 mg/L). In particular this exceptional low solubility of the active substance necessitated development of a non-conventional dosage form.

Q: Which solubility does the source give for `CO[C@@H]1[C@H](N(C)C(=O)c2ccccc2)C[C@H]2O[C@]1(C)n1c3ccccc3c3c4c(c5c6ccccc6n2c5c31)C(=O)NC4` [N-benzoyl-staurosporine] here?
A: < 0.1 µg/mL
